Measurements taken from US20230174484A1, “ANTAGONISTS OF GPR39 PROTEIN” (Oregon Health & Science University, priority 2020, published 2023).
pKi: −log10 of the molar value.

Target: T1, human GPR39 receptor (Homo sapiens, UniProt O43194)
T1 construct: PC3 Cells, Expressing the Endogenous Human GPR39 Receptor; endogenous in cells; host or cells: PC3 (human prostate adenocarcinoma) cells
T1 sequence (O43194 1-453): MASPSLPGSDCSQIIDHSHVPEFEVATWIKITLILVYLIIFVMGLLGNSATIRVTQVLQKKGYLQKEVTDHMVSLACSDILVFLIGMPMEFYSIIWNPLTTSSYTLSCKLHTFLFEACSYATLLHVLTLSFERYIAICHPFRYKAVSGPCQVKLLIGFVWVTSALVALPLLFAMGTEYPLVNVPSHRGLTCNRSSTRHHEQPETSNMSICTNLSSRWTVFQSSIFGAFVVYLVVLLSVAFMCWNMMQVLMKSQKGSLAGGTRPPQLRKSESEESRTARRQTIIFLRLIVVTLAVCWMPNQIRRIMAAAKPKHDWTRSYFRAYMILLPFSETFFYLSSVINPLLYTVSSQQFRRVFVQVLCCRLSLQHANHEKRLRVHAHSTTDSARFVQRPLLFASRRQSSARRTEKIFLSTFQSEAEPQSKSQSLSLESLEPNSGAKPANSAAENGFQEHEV
Experiment: Measurement of intracellular calcium response in PC3 cells (FLIPR), antagonism of the C3 agonist response
Type: cell-based
Conditions: functional pKi (modified Cheng-Prusoff), inhibition of the C3 (TC-G 1008) response at EC90, 30 μM ZnCl2, read-out: fpKi activity
In short: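 Potency was reported as fpKi, converted by modified Cheng-Prusoff from four-parameter IC50 fits against an EC90 C3 agonist challenge. Calcium-6 FLIPR readings used PC3 cells naturally expressing human GPR39, in pH 7.4 HEPES buffer containing 30 μM final ZnCl2. Score bands: +/± <5.2, + 5.2–5.9, ++ 6.0–6.5, +++ 6.6–7.2, ++++ ≥7.3.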

pKi	SMILES
≥ 7.30	O=C(Nc1ccc(C(=O)N2CCS(=O)(=O)CC2)c(N2CCC(C(F)(F)F)C2)c1)C1CC1 (single isomer, unassigned) [Example 183a, N-[4-(1,1-dioxo-1,4-thiazinane-4-carbonyl)-3-[3r or 3S-(trifluoromethyl)pyrrolidin-1-yl]phenyl]cyclopropanecarboxamide]
6.60 to 7.20	O=C(Nc1ccc(C(=O)N2CCS(=O)(=O)CC2)c(N2CCC(C(F)(F)F)C2)c1)C1CC1 (single isomer, unassigned) [Example 183b, N-[4-(1,1-dioxo-1,4-thiazinane-4-carbonyl)-3-[3R or 3S-(trifluoromethyl)pyrrolidin-1-yl]phenyl]cyclopropanecarboxamide]
6.60 to 7.20	O=C(Nc1ccc(C(=O)N2CCS(=O)(=O)CC2)c(N2CCCC(C(F)(F)F)C2)c1)C1CC1 (single isomer, unassigned) [Example 185a, N-[4-(1,1-dioxo-1,4-thiazinane-4-carbonyl)-3-[3R or 3S-(trifluoromethyl)piperidin-1-yl]phenyl]cyclopropanecarboxamide]
≥ 7.30	O=C(Nc1ccc(C(=O)N2CCS(=O)(=O)CC2)c(N2CCCC(C(F)(F)F)C2)c1)C1CC1 (single isomer, unassigned) [Example 185b, N-[4-(1,1-dioxo-1,4-thiazinane-4-carbonyl)-3-[3R or 3S-(trifluoromethyl)piperidin-1-yl]phenyl]cyclopropanecarboxamide]
≥ 7.30	CN1CCN(C(=O)c2ccc(NC(=O)C3CC3)cc2N2CCC(C(F)(F)F)C2)C(c2ccccc2)C1 (single isomer, unassigned) [Example 199a, (2S, 3R) or (2R, 3S) or (2R, 3R) or (2S, 3S) N-[4-(4-methyl-2-phenylpiperazine-1-carbonyl)-3-[3-(trifluoromethyl)pyrrolidin-1-yl]phenyl]cyclopropanecarboxamide]
6.00 to 6.50	CN1CCN(C(=O)c2ccc(NC(=O)C3CC3)cc2N2CCC(C(F)(F)F)C2)C(c2ccccc2)C1 (single isomer, unassigned) [Example 199b, (2S, 3R) or (2R, 3S) or (2R, 3R) or (2S, 3S) N-[4-(4-methyl-2-phenylpiperazine-1-carbonyl)-3-[3-(trifluoromethyl)pyrrolidin-1-yl]phenyl]cyclopropanecarboxamide]
6.60 to 7.20	CN1CCN(C(=O)c2ccc(NC(=O)C3CC3)cc2N2CCC(C(F)(F)F)C2)C(c2ccccc2)C1 (single isomer, unassigned) [Example 199c, (2S, 3R) or (2R, 3S) or (2R, 3R) or (2S, 3S) N-[4-(4-methyl-2-phenylpiperazine-1-carbonyl)-3-[3-(trifluoromethyl)pyrrolidin-1-yl]phenyl]cyclopropanecarboxamide]

Continued, compound first:

SMILES	pKi
Cc1nnc(-c2ccc(C(=O)N3CCN(C)CC3c3ccccc3)c(N3CCC(C(F)(F)F)C3)c2)[nH]1 (single isomer, unassigned) [Example 177b, (2S, 3R) or (2R, 3S) or (2R, 3R) or (2S, 3S) (4-methyl-2-phenylpiperazin-1-yl)-[4-(5-methyl-4H-1,2,4-triazol-3-yl)-2-[3-(trifluoromethyl)pyrrolidin-1-yl]phenyl]methanone]	6.00 to 6.50
Cc1nnc(-c2ccc(C(=O)N3CCN(C)CC3c3ccccc3)c(N3CCC(C(F)(F)F)C3)c2)[nH]1 (single isomer, unassigned) [Example 177c, (2S, 3R) or (2R, 3S) or (2R, 3R) or (2S, 3S) (4-methyl-2-phenylpiperazin-1-yl)-[4-(5-methyl-4H-1,2,4-triazol-3-yl)-2-[3-(trifluoromethyl)pyrrolidin-1-yl]phenyl]methanone]	≥ 7.30
Cc1nnc(-c2ccc(C(=O)N3CCN(C)CC3c3ccccc3)c(N3CCC(C(F)(F)F)C3)c2)[nH]1 (single isomer, unassigned) [Example 177d, (2S, 3R) or (2R, 3S) or (2R, 3R) or (2S, 3S) (4-methyl-2-phenylpiperazin-1-yl)-[4-(5-methyl-4H-1,2,4-triazol-3-yl)-2-[3-(trifluoromethyl)pyrrolidin-1-yl]phenyl]methanone]	6.00 to 6.50
